Data as given in ChEMBL document CHEMBL5532731, “Structural Modifications of Covalent Cathepsin S Inhibitors: Impact on Affinity, Selectivity, and Permeability” (ACS Med Chem Lett, 2024).
Calls of active or inactive are those of the source. The calls are words filed in the database; no cut-off is given here. Starred links: 1 amine or outer side, 2 acyl side, 3 side chain; linkers in the order of their positions; H or OH if unused. Non-standard residues stand in square brackets, D forms with d. Residues, ends and D or L forms follow the SMILES beside them. *: point of attachment. Cha = N[C@@H](CC1CCCCC1)C(=O)O; Morpholide = C1CN(*)CCO1; CO = O=C([*:1])[*:2]; Bn = c1ccc(C*)cc1; CH2Cl = ClC*

Experiments:
Cathepsin S [1] = molecular target: T1, Cathepsin S (Homo sapiens, UniProt P25774); assay: Inhibition of recombinant Cathepsin S (unknown origin) expressed in Escherichia coli using Z-Val-Val-Arg-AMC as substrate by fluorescence based assay
Target sequence in this assay (P25774 whole entry): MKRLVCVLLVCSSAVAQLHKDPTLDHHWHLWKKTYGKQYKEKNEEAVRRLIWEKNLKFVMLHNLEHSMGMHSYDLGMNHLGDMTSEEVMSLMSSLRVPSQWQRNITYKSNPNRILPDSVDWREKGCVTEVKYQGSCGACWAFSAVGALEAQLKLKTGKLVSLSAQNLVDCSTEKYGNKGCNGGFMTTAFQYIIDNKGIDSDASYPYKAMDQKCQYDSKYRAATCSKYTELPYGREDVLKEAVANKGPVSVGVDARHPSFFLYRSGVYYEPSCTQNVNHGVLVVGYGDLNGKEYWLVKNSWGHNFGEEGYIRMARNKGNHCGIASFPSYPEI

Cathepsin B = Cathepsin B (Homo sapiens, UniProt P07858); assay: Inhibition of human Cathepsin B using Z-Phe-Arg-AMC as substrate by fluorescence based assay
Procathepsin L = Procathepsin L (Homo sapiens, UniProt P07711); assay: Inhibition of human Cathepsin L using Z-Phe-Arg-AMC as substrate by fluorescence based assay
Chain of Procathepsin L (P07711 whole entry): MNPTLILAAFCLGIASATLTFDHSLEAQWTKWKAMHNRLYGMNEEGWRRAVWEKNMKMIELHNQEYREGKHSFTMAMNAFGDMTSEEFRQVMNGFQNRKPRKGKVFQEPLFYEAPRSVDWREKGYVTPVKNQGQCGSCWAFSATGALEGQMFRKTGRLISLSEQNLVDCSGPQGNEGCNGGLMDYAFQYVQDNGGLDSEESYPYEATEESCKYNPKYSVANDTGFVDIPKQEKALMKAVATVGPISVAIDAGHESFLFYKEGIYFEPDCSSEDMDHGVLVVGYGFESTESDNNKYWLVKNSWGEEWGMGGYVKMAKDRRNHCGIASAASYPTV

Cathepsin S [2] = molecular target: T1, Cathepsin S; assay: Irreversible binding affinity to recombinant Cathepsin S (unknown origin) expressed in Escherichia coli incubated for 60 mins followed by substrate addition by fluorescence based dilution assay
Target sequence in this assay (P25774 115-331 limits assumed): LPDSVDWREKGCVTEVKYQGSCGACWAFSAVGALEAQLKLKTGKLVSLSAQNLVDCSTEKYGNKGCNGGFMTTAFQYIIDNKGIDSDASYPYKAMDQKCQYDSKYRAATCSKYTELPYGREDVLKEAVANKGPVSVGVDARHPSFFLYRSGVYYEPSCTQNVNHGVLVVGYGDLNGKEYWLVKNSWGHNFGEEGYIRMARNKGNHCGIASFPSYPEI

[3] = Permeability of compound measured after 7 hrs by PAMPA; format: ADME; conditions: read-out: permeability
Cathepsin S [4] = molecular target: T1, Cathepsin S; assay: Binding affinity to recombinant Cathepsin S (unknown origin) expressed in Escherichia coli using Z-Val-Val-Arg-AMC as substrate assessed as inhibition constant for slowly reversible binding by fluorescence based assay
Target sequence in this assay (P25774 whole entry): as the sequence (P25774 whole entry) above

[5] = Oral bioavailability in rat; format: ADME, organism-based; conditions: in vivo
Cathepsin S [6] = molecular target: T1, Cathepsin S; assay: Binding affinity to recombinant Cathepsin S (unknown origin) expressed in Escherichia coli using Z-Val-Val-Arg-AMC as substrate assessed as Kinact for irreversible binding by fluorescence based assay
Target sequence in this assay (P25774 115-331 limits assumed): as the sequence (P25774 115-331 limits assumed) above

Cathepsin S [7] = molecular target: T1, Cathepsin S; assay: Binding affinity to recombinant Cathepsin S (unknown origin) expressed in Escherichia coli using Z-Val-Val-Arg-AMC as substrate assessed as second-order rate constant (K) for irreversible binding by fluorescence based assay
Target sequence in this assay (P25774 115-331 limits assumed): as above

[8] = Selectivity index, ratio of Ki for human Cathepsin B using Z-Phe-Arg-AMC as substrate to Ki for recombinant Cathepsin S (unknown origin) expressed in Escherichia coli using Z-Val-Val-Arg-AMC as substrate
[9] = Stability of compound at pH 4 assessed as compound remaining measured after 24 hrs; format: physicochemical; conditions: buffer, pH 4, 24 h
[10] = Stability of compound at pH 7.4 assessed as compound remaining measured after 24 hrs; format: physicochemical; conditions: buffer, read-out: Stability
[11] = Stability of compound at pH 4 assessed as compound remaining measured after 2 hrs; format: physicochemical; conditions: buffer, pH 4, 2 h
[12] = Selectivity index, ratio of Ki for human Cathepsin L using Z-Phe-Arg-AMC as substrate to Ki for recombinant Cathepsin S (unknown origin) expressed in Escherichia coli using Z-Val-Val-Arg-AMC as substrate
Cathepsin S [13] = molecular target: T1, Cathepsin S; assay: Inhibition of Cathepsin S (unknown origin)
Target sequence in this assay (P25774 whole entry): as the sequence (P25774 whole entry) above

Row | Ki (Cathepsin S [1]) [nM] | Ki (Cathepsin B) [nM] | Ki (Procathepsin L) [nM] | Papp at 7 h [3] [×10⁻⁶ cm/s] | SMILES | further results
1 | 165 | > 10 | > 3000 | – | O=C(SCC(=O)[C@H](COCc1ccccc1)NC(=O)[C@H](CC1CCCCC1)NC(=O)N1CCOCC1)c1ccccc1 | Activity (Cathepsin S [2]): inactive
2 | – | 1910 | 1020 | 2 | N#C[C@H](COCc1ccccc1)NC(=O)[C@H](CC1CCCCC1)NC(=O)c1ccncc1 | –
3 | 331 | > 510 | > 600 | 0.8 | O=C(CS(=O)(=O)c1ccccc1)[C@H](COCc1ccccc1)NC(=O)[C@H](CC1CCCCC1)NC(=O)N1CCOCC1 | Ki (Cathepsin S [4]): 43 nM; Activity (Cathepsin S [2]): inactive
4 | – | – | – | – | CNC(=O)O[C@H]1COc2ccc(N3CCN(C4COC4)CC3)cc2[C@@H]1NC(=O)c1ccc(F)cc1 | bioavailability [5]: 92%
5 | – | 1050 | 543 | 4.7 | N#C[C@H](COCc1ccccc1)NC(=O)[C@H](CC1CCCCC1)NC(=O)N1CCOCC1 | –
6 | 25 | > 2550 | > 600 | – | O=C(OCC(=O)[C@H](COCc1ccccc1)NC(=O)[C@H](CC1CCCCC1)NC(=O)N1CCOCC1)c1ccccc1 | Activity (Cathepsin S [2]): Active
7 | 0.5 | – | – | – | O=C(CCl)[C@H](COCc1ccccc1)NC(=O)[C@H](CC1CCCCC1)NC(=O)N1CCOCC1 ({Morpholide-CO}-[Cha]-Ser(Bn)-CH2Cl) | Kinact (Cathepsin S [6]): 0.002 s⁻¹; K (Cathepsin S [7]): 4.3 10^6/M/s
8 | 13 | 1670 | 1460 | 2.5 | N#C[C@H](CCc1ccccc1)NC(=O)[C@H](CC1CCCCC1)NC(=O)c1ccncc1 | –
9 | – | 7850 | 2540 | 6 | N#C[C@H](CCc1ccccc1)NC(=O)[C@H](CC1CCCCC1)NC(=O)N1CCOCC1 | –
10 | 2.4 | 157 | 1950 | – | CS(=O)(=O)C[C@H](N[C@@H](c1ccc(F)cc1)C(F)(F)F)C(=O)N[C@H](C#N)COCc1ccccc1 | –
11 | 61 | > 12000 | 5040 | 4.1 | N#C[C@H](COCc1ccccc1)NC(=O)[C@H](CC1CCCCC1)NC(=O)C1CCOCC1 | –
12 | 1 | 1670 | 7110 | – | CS(=O)(=O)C[C@H](N[C@@H](c1ccc(F)cc1)C(F)(F)F)C(=O)NC1(C#N)CC1 | Ratio Ki [8]: 1670; Activity (Cathepsin S [2]): inactive
13 | 382 | > 12000 | 6340 | 6.6 | N#C[C@H](CCc1ccccc1)NC(=O)[C@H](CC1CCCCC1)NC(=O)C1CCOCC1 | –
14 | 13 | 82 | > 10000 | 0.7 | CS(=O)(=O)C[C@H](N[C@@H](c1ccc([N+](=O)[O-])cc1)C(F)(F)F)C(=O)N[C@H](C#N)COCc1ccccc1 | –
15 | 146 | > 12000 | > 10000 | – | N#C[C@H](CCc1ccccc1)NC(=O)[C@H](CC1CCCCC1)N[C@@H](c1ccc(F)cc1)C(F)(F)F | –
16 | 3 | – | – | – | C=CS(=O)(=O)C(=O)[C@H](COCc1ccccc1)NC(=O)[C@H](CC1CCCCC1)NC(=O)N1CCOCC1 | Kinact (Cathepsin S [6]): 0.02 s⁻¹; K (Cathepsin S [7]): 7.2 10^6/M/s; Activity (Cathepsin S [2]): Active
17 | 117 | > 12000 | 1670 | 0.1 | N#CC1(NC(=O)[C@H](CC2CCCCC2)NC(=O)C2CCOCC2)CC1 | –
18 | 989 | > 12 | > 2500 | – | O=C(N/N=C(\CS(=O)(=O)c1ccccc1)[C@H](COCc1ccccc1)NC(=O)[C@H](CC1CCCCC1)NC(=O)N1CCOCC1)c1ccccc1 | Stability [9]: 13%
19 | 2.2 | 142 | 21 | 0.1 | O=C(N/N=C/[C@H](COCc1ccccc1)NC(=O)[C@H](CC1CCCCC1)NC(=O)N1CCOCC1)c1ccccc1 | Stability [9]: 80%; remaining at 24 h [10]: 50%; Stability [11]: 50%
20 | 3.6 | 36 | > 10000 | – | CS(=O)(=O)C[C@H](N[C@@H](c1ccc([N+](=O)[O-])cc1)C(F)(F)F)C(=O)N[C@H](C#N)CCc1ccccc1 | Ratio Ki [12]: > 2780
21 | – | – | – | – | CN1CCN(C(=O)N[C@@H](Cc2ccccc2)C(=O)N[C@H](/C=C/S(=O)(=O)c2ccccc2)CCc2ccccc2)CC1 [K-777] | Ki (Cathepsin S [13]): 13 nM
22 | 11 | > 12000 | > 10000 | – | N#C[C@H](COCc1ccccc1)NC(=O)[C@H](CC1CCCCC1)N[C@@H](c1ccc(F)cc1)C(F)(F)F | –
23 | 0.039 | 64 | 17 | 4.5 | O=C[C@H](COCc1ccccc1)NC(=O)[C@H](CC1CCCCC1)NC(=O)N1CCOCC1 ({Morpholide-CO}-[Cha]-Ser(Bn)-aldehyde) | Ki (Cathepsin S [4]): 0.016 nM; Ratio Ki [8]: > 1600; Ratio Ki [12]: > 435
24 | 20 | > 12000 | 1500 | 4.9 | N#CC1(NC(=O)[C@H](CC2CCCCC2)N[C@@H](c2ccc(F)cc2)C(F)(F)F)CC1 | –
25 | 67 | > 2550 | > 600 | – | O=C(CO)[C@H](COCc1ccccc1)NC(=O)[C@H](CC1CCCCC1)NC(=O)N1CCOCC1 | Activity (Cathepsin S [2]): inactive
26 | 13 | > 12000 | 716 | – | N#CC1(NC(=O)[C@H](CC2CCCCC2)NC(=O)c2ccncc2)CC1 | –
27 | 1.5 | > 12000 | 385 | – | N#CC1(NC(=O)[C@H](CC2CCCCC2)NC(=O)N2CCOCC2)CC1 | –
28 | 7.8 | > 12000 | > 10000 | – | CS(=O)(=O)C[C@H](N[C@@H](c1ccc([N+](=O)[O-])cc1)C(F)(F)F)C(=O)NC1(C#N)CC1 | Ratio Ki [8]: > 1500
